Reference: patent US20100260772A1, “METHODS FOR TREATING OR PREVENTING DISEASES ASSOCIATED WITH LOW BONE MASS” (THE TRUSTEES OF COLUMBIA UNIVERSITY IN THE CITY OF NEW YORK, priority 2007, published 2010)

Columns and labels:
[1] = tested on: neuropeptides Y (Npy), a leptin target gene in arcuate neurons; assay: Leptin injection, Npy expression (internal control); format: in vivo, mice; settings: same leptin injection
From the text: Next, we injected i.p […] of leptin and studied its effects on Tph2 expression 4 and […]. We also measured the brain concentration of serotonin in leptin knockouts (ob/ob mice). FIG. 5. […] FIG. 15. […] FIG. 5. […] Serotonin neurons in the brain stem have the ObRb receptors that bind to leptin, and they project to the hypothalamus.

[2] = tested on: cfos expression in brain stems; assay: Leptin injection, cfos expression in brain stem; format: in vivo; settings: following leptin injection
From the text: We know that expression of the leptin receptor ObRb is not restricted to hypothalamic neurons and can be found in particular in serotonin-producing neurons of the brainstem that also express Tph2. […] This latter result means that leptin's first site of action in the brain is not, at least as far as controlling bone mass is concerned, the hypothalamus but rather the brainstem where serotonergic neurons are localized.

[3] = tested on: Tph2 expression in brainstem; assay: Leptin injection, Tph2 expression in brainstem; format: in vivo, mice

leptin: endogenous polypeptide product of an ob gene
expression of neuropeptides Y (Npy) [1]: decreased | cfos expression in brain stems [2]: increased cfos expression | Tph2 expression in brain stem (in words) ([3]; leptin injection (ICV, FIG. 7)): decreases Tph2 expression | decrease of Tph2 expression in brainstem ([3]; leptin injection i.c.v., FIG. 15): approximately 50%
